Experimental findings from ChEMBL document CHEMBL4808205, “Discovery of TAK-041: a Potent and Selective GPR139 Agonist Explored for the Treatment of Negative Symptoms Associated with Schizophrenia” (J Med Chem, 2021) are described below.

The structures appear in SMILES notation.

Data set [1] can be described thus: Volume of distribution in rat at 1 mg/kg, iv or 2 mg/kg, po. Type of data set: ADME, organism-based. To be noted: in vivo.
Data set [2] is described as follows: Bioavailability in rat at 1 mg/kg, iv. Type of data set: ADME, organism-based. To be noted: in vivo, po 2 mg/kg vs iv 1 mg/kg.
The nature of data set [3]: Cmax in rat at 1 mg/kg, iv or 2 mg/kg, po. Type of data set: ADME, organism-based. More on the design: dose 2 mg/kg. The following applies: in vivo.
Data set [4] is described as follows: Lipophilicity, logD of compound. To be noted: octanol/water. Type of data set: physicochemical.
In data set [5] the test system is MDR1 (human). As to the kind of experiment: Permeability across apical to basolateral side in pig LLC-PK1 cells expressing human MDR1. Type of data set: ADME, cell-based, Sus scrofa. The following applies: read-out: permeability.
A short description of data set [6]: Free drug concentration in BALB/c mouse brain. Type of data set: ADME, tissue-based. To be noted: in vivo.
Data set [7] deals with MDR1. As to the kind of experiment: Apparent permeability in dog MDCK-MDR1 cells. Type of data set: ADME, cell-based, Canis lupus familiaris.
The nature of data set [8]: Oral bioavailability in mouse at 30 mg/kg after 1 hr. Type of data set: ADME, organism-based. The following applies: in vivo.

By bioavailability is commonly meant the share of a dose that reaches the circulation, judged against a reference dose that is usually intravenous. In general, Cmax refers to the maximum level reached in the sampled fluid or tissue. By logD is commonly meant the decadic logarithm of the distribution of all forms, ionised or not, between an organic phase and buffer at a given pH. Higher therefore signals a more lipophilic compound. Regarding `C[C@H](NC(=O)Cn1nnc2ccccc2c1=O)c1ccc(OC(F)(F)F)cc1` [ZELATRIAZIN], the Vd in data set [1] stood at 1 L/kg. The bioavailability in data set [2] stood at 100%. In data set [3], this compound gave a maximum concentration (Cmax) of 961 ng/mL. The logD in data set [4] was found to be 2.4. Also, in data set [5], the Papp A→B amounted to 18.3 ×10⁻⁶ cm/s. The “Drug uptake(free)” value in data set [6] is on record as under 10 nM.

Compound `COc1ccc2nnn(CC(=O)N[C@@H](C)c3ccc(C)cc3)c(=O)c2c1` showed a Vd in data set [1] of 0.6 L/kg. Moreover, in data set [2], the bioavailability amounted to 2%. The Cmax in data set [3] turned out to be 15 ng/mL.

Broadly, the Papp is a coefficient for how fast a substance crosses the barrier. As for `O=C(Cn1nnc2ccccc2c1=O)NCCc1ccc(Cl)cc1`, in data set [7], the Papp was found to be 9.1 ×10⁻⁶ cm/s.

On to `COc1cccc2nnn(CC(=O)N[C@@H](C)c3ccc(C)cc3)c(=O)c12`, for which the Vd in data set [1] worked out at 0.4 L/kg. Further, the bioavailability in data set [2] was found to be 50%. In data set [3], the highest level (Cmax) was 541 ng/mL. The “Drug uptake(free)” value in data set [6] was under 10 nM.

`C[C@H](NC(=O)Cn1nnc2ccccc2c1=O)c1ccc(C(F)(F)F)cc1` yielded a Vd in data set [1] of 1.4 L/kg. The bioavailability in data set [2] was over 100%. In addition, in data set [3], the Cmax amounted to 644 ng/mL. Further, the “Drug uptake(free)” value in data set [6] was under 10 nM.

Regarding `Cc1ccc([C@H](C)NC(=O)Cn2nnc3ccccc3c2=O)cc1`, the Vd in data set [1] was 2.1 L/kg. The bioavailability in data set [2] worked out at 27%; in data set [8], 30%. Besides, the peak level in data set [3] (Cmax) was 94 ng/mL.
